According to US20150366932A1, “METHODS FOR PRODUCING DIKETOPIPERAZINES AND COMPOSITIONS CONTAINING DIKETOPIPERAZINES” (AMPIO PHARMACEUTICALS, INC., priority 2013, published 2015):
“Also recorded” adds a separate entry of the source.

How the values were obtained:
[1] = test system: activated PBMC and T-lymphocytes; settings: activated PBMC and T-lymphocytes in vitro; cited from earlier work
neurokinin-1 receptor = neurokinin-1 receptor (Homo sapiens, UniProt P25103); settings: cited from earlier work
neurokinin-1 receptor, sequence (P25103 whole entry): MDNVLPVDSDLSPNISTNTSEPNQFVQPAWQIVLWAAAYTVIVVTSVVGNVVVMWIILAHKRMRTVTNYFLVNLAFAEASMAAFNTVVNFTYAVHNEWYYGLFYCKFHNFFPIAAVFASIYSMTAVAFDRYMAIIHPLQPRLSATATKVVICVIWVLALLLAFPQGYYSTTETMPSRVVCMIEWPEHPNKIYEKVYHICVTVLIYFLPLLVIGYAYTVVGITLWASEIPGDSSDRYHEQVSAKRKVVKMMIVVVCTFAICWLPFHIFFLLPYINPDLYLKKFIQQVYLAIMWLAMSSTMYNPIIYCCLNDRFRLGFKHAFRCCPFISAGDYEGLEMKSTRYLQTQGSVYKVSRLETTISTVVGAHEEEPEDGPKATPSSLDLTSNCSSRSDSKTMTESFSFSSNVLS

[2] = target: T1, dipeptidyl peptidase IV (DPP-IV) (Homo sapiens, UniProt P27487); assay: DPP-IV activity assay with chromogenic substrate Gly-Pro-pNA in HSA solutions; type: biochemical; settings: 1 mM diprotin A pre-incubated 15 minutes at 37° C.; Gly-Pro-pNA 1 mM; 24 hour incubation at 37° C.
T1 construct: the Cohn manufacturing process which isolates other plasma components such as DPP-IV; tissue CSL Behring LLC; Grifols Biologicals Inc; Octapharma USA Inc. (5% HSA products that contain the enzyme); host or cells: human plasma (Cohn fractionation; commercial 5% HSA solution)
T1 sequence (P27487 39-766 limits assumed): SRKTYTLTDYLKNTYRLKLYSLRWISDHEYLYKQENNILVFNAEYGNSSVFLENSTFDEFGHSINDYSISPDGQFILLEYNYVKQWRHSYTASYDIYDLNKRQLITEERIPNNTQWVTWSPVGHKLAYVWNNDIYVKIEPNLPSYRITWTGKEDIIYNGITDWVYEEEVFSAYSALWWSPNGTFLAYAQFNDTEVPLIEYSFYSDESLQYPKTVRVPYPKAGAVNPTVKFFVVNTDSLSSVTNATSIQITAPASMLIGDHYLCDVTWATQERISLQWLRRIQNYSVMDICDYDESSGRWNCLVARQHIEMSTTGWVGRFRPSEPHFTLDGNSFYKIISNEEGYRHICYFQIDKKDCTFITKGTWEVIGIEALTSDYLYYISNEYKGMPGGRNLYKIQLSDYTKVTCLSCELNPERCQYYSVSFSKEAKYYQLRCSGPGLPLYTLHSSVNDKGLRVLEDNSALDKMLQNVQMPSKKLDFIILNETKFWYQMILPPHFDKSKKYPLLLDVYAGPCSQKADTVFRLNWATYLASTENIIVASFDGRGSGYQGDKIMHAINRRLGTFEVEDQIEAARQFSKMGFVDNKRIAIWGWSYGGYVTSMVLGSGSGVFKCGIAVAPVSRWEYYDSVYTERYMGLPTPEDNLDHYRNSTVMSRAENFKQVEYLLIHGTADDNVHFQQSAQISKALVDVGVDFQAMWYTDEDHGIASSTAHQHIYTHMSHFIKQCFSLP
Method: DPP-IV activity was assayed by using a chromogenic substrate, Gly-Pro-pNA, as described in E. Nemoto, S. Sugawara, H. Takada, et al., Increase of CD26/dipeptidyl peptidase IV expression on human gingival fibroblasts upon stimulation with cytokines and bacterial components. […] All reactions were carried out in DPP-IV assay buffer (pH 7.6) consisting of 0.1M HEPES, 0.12M NaCl, 5 mM KCl, 8 mM glucose, and 10 mg/ml bovine serum albumin (BSA). 5% commercial HSA, recombinant HSA, or buffer blank (0.9% NaCl) were combined with 1 mM Gly-Pro-pNA (DPP-IV substrate) in assay buffer or assay buffer only (−CON). Incubations were performed at 37° C. or 60° C. for 2-24 hours. For DPP-IV inhibition studies, 1 mM diprotin A in assay buffer was pre-incubated with the HSA solutions for 15 minutes at 37° C. prior to DPP-IV substrate addition. All incubations were read at 405 nm (SpectraMax M2 spectrophotometer, Molecular Devices LLC, Sunnyvale, Calif., USA). Each reading at 405 nm was corrected by subtracting the A405 for the DPP-IV substrate-containing incubation from the corresponding A405 for the −CON incubation for each HSA solution tested.
The amount of pNA produced in μM was calculated based on the pNA molar extinction coefficient in HEPES buffer (see R. Lottenberg, C. M. Jackson, Solution composition dependent variation in extinction coefficients for p-nitroaniline. Biochim Biophys Acta 742 (1983) 558-64). […] Groups were compared using a two tailed students' T-test with a significance level at p<0.05. All data is reported as mean±SD.
Dipeptidyl peptidase IV (DPP-IV) activity was assessed in commercial preparations of human serum albumin (HSA). […] The resulting liberation of a chromogen, pNA, was measured spectrophotometrically at 405 nm.

DPP-IV = target: T2, DPP-IV (Homo sapiens, UniProt P27487); assay: DA-DKP formation in 5% commercial HSA heated at 60° C., <5 kDa fraction by LCMS; type: biochemical
T2 construct: the Cohn manufacturing process which isolates other plasma components such as DPP-IV; tissue CSL Behring LLC; Grifols Biologicals Inc; Octapharma USA Inc. (5% HSA products that contain the enzyme); host or cells: human plasma (Cohn fractionation; commercial 5% HSA solution)
T2 sequence (P27487 39-766 limits assumed): as above
Method: For the analysis of DA-DKP formation, an aliquot was added to a microcentrifugal filter (Vivaspin 2, MWCO 5,000, Sartorius Stedim Biotech, Goettingen, Germany). Filters were centrifuged at 3,500 rpm for 30 minutes at room temperature. The <5 kDa fraction was collected and transferred to a separate, storage tube for LCMS analysis.
Each <5 kDa fraction & DA-DKP synthetic standard (20-2000 ng/mL) were spiked with 0.01 mM L-Tryptophan-d5 (indole-d5) which was used as an internal standard. 50 μL was injected into a strong anion exchange column (Spherisorb, S5 SAX 250 mm×4.0 mm, Waters, Milford, Mass., USA) connected to high performance liquid chromatography (HPLC, Waters 2795 Separations Module, Milford, Mass., USA) coupled to a mass spectrometer (LCT-TOF, Micromass, UK). […]
The output of the HPLC was split 1:20 (v/v) and injected into the mass spectrometer using negative electrospray ionization (−ESI) with a scan range of 80 to 1000 m/z, cone voltage of 30 eV, source temperature of 100° C., and gas temperature of 300° C. DA-DKP was measured by monitoring [M]=185, which corresponds to DA-DKP minus a single proton (—H+). The straight chain of DA-DKP, Asp-Ala, can also be analyzed with this method by monitoring [M]=203.
The formation of the DKP, DA-DKP, was measured in a commercial HSA solution heated at 60° C. in the presence or absence of a known DPP-IV inhibitor (diprotin A). […]

CC1NC(=O)C(CC(=O)O)NC1=O (centres unmarked) [DA-DKP, 3-methyl-2,5-diketopiperazine-6-acetic acid]
Immunosuppressive effects [1]: immunosuppressive effects

CC(=O)N[C@@H](Cc1c[nH]c2ccccc12)C(=O)O [NAT, N-acetyl-tryptophan]
Antagonism of the neurokinin-1 receptor (neurokinin-1 receptor): well-known antagonist

Ile-Pro-Ile [diprotin A]
DPP-IV activity in commercial HSA in the presence of DPP-IV inhibitor [2]: completely suppressed; also recorded: complete suppression of DPP-IV activity; also recorded: abolished
Decrease of amount of DA-DKP produced with inhibitor (DPP-IV; 24 hour period, commercial HSA): ~3 fold
Increase in DA-DKP production in the presence of the DPP-IV inhibitor (DPP-IV; 24 hours, 5% commercial HSA plus diprotin A): 10%
